Laboratory results reported in article PMC6767234, “Effects of the Ethanol Extract of Dipterocarpus alatus Leaf on the Unpredictable Chronic Mild Stress-Induced Depression in ICR Mice and Its Possible Mechanism of Action” (Molecules, 2019).
Structures can show the parent of a compound that is named as a salt.

Key:
[1] = system: mice; conditions: cited from earlier work
[2] = system: UCMS; set-up: method as in PMID 28732760; conditions: cited from earlier work
[3] = system: ICR mice; set-up: method as in PMID 31394019; conditions: oral, 5 mg/kg for 7 days, vs vehicle-administered control group; cited from earlier work
[4] = system: serum corticosterone (CORT); assay: Serum corticosterone (CORT) ELISA in UCMS mice; format: in vivo, ICR mice; conditions: imipramine 20 mg/kg/day, LE 100–500 mg/kg/day for 3 weeks, vs vehicle-treated UCMS group
Method: (§1) UCMS procedures were used to induce the depressive-like behaviors in mice as previously described by Mizuki et al., with minor modification. Briefly, in week 0, the animals were first trained to consume a 2% sucrose solution for a 48-h period in their home cages with no food or water. After this training, the animals were deprived of water and food for 18 h, and then sucrose solution was given for 1 h per day for 5 consecutive days in order to group the mice and determine the baseline sucrose consumption. The animals were randomly divided into 5 groups: a non-stressed control group and 4 other groups subjected to UCMS for 5 weeks. […]
After completing the behavioral analysis, blood was collected via cardiac puncture under anesthesia with pentobarbital sodium as anesthetic drug (Nembutal®: 60 mg/kg i.p.; Ceva Sante Animale, Libourne, France). […] The absorbance was immediately determined at 450 nm.

[5] = system: UCMS mice; assay: Tail suspension test (TST) in UCMS mice; format: in vivo, ICR mice; conditions: LE 100 and 500 mg/kg p.o. (dose-dependent), IMP 20 mg/kg i.p., vs vehicle-treated UCMS group
Method: as §1
Each mouse was suspended upside down in the tail suspension test box, which leads to characteristic behavior immobility. […] Immobility duration was recorded for the last 4 min, during a 6-min observation period. […]

[6] = system: UCMS mice; assay: Forced swimming test (FST) in UCMS mice; format: in vivo, ICR mice; conditions: LE 100 and 500 mg/kg p.o. (dose-dependent), IMP 20 mg/kg i.p., vs vehicle-treated UCMS group
Method: as §1, with “weeks. The UCMS procedures consisted of a variety of unpredictable mild stressors, including two periods of cage tilting at 45° (12 h), two periods of restricted access to food (5 micropellets, 1 h), two periods of exposure to an empty bottle (3 h), one 21 h-period of a wet cage (200 mL of water in 100 g of sawdust bedding), two periods of light exposure (36 h), two periods of intermittent sound (a cat singing sound) (3 and 5 h), two periods of paired caging (2 h), and food and water deprivation for 18 h before the measurement of 2% sucrose solution consumption.” for “weeks.”
Forced swimming test (FST) is one of the most commonly used animal models for assessing antidepressant-like behavior. […] The immobility time was recorded during 5 min.

[7] = system: BDNF mRNA; assay: QPCR of BDNF mRNA in frontal cortex and hippocampus of UCMS mice; format: in vivo, ICR mice; conditions: LE 100 and 500 mg/kg p.o., IMP 20 mg/kg i.p.
Method: as §1
(§2) Mouse serum/glucocorticoid-regulated kinase 1 (SGK1), cyclic AMP response element binding protein (CREB), brain-derived neurotrophic factor (BDNF), mRNAs expression in hippocampus and frontal cortex were quantified by real time PCR. […] Fold difference relative expressions were calculated.

[8] = system: UCMS mice; assay: Sucrose preference test (anhedonia) in UCMS mice; format: in vivo, ICR mice; conditions: IMP 20 mg/kg i.p. daily, 5th week, vs vehicle-treated UCMS group
Method: as §1, with “weeks. The UCMS procedures consisted of a variety of unpredictable mild stressors, including two periods of cage tilting at 45° (12 h), two periods of restricted access to food (5 micropellets, 1 h), two periods of exposure to an empty bottle (3 h), one 21 h-period of a wet cage (200 mL of water in 100 g of sawdust bedding), two periods of light exposure (36 h), two periods of intermittent sound (a cat singing sound) (3 and 5 h), two periods of paired caging (2 h), and food and water deprivation for 18 h before the measurement of 2% sucrose solution consumption.” for “weeks.”
The sucrose preference test was used to assess the anhedonic-like behavior. […] The amounts of 2% (w/v) sucrose solution were recorded. […]

[9] = system: CREB mRNA; assay: QPCR of CREB mRNA in frontal cortex and hippocampus of UCMS mice; format: in vivo, ICR mice; conditions: LE 100 and 500 mg/kg p.o., IMP 20 mg/kg i.p.
Method: as §1, §2

[10] = system: UCMS mice; assay: Locomotor activity in the Y-maze task in UCMS mice; format: in vivo, ICR mice; conditions: LE 100 and 500 mg/kg p.o., IMP 20 mg/kg i.p.
Method: as §1
In order to exclude false positive results from drug-induced hyperlocomotion in hopeless behavioral tests, locomotor activity was determined by evaluation of mice movement. […] One hour after drug administration, the mice were individually placed on one arm, and the total arm entries were recorded manually over 8 min-period for measuring the locomotion activity.

[11] = system: SGK1 mRNA; assay: QPCR of SGK1 mRNA in frontal cortex and hippocampus of UCMS mice; format: in vivo, ICR mice; conditions: LE 100 and 500 mg/kg p.o. (dose-dependent), IMP 20 mg/kg i.p.
Method: as §1, §2

[12] = molecular target: T1, recombinant human MAO-B (Homo sapiens, UniProt P27338); conditions: read-out: Km for the oxidation of kynuramine by MAO-B; cited from earlier work
T1 sequence (P27338 1-520): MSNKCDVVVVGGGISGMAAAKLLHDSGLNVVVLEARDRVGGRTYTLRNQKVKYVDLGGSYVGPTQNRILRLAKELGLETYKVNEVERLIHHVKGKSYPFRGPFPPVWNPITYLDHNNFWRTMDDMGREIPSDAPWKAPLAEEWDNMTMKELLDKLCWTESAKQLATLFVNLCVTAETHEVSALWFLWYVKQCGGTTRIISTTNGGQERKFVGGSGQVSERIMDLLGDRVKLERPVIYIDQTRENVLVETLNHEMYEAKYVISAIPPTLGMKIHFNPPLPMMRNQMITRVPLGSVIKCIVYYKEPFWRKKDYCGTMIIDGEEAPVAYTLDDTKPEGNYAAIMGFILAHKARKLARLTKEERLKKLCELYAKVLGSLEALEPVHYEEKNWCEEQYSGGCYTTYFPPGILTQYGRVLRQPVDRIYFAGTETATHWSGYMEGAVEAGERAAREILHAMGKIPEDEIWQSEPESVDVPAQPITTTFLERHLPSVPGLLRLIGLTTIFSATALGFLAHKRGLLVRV

[13] = molecular target: T2, recombinant human MAO-A (Homo sapiens, UniProt P21397); conditions: read-out: Km for the oxidation of kynuramine by MAO-A; cited from earlier work
T2 sequence (P21397 1-527): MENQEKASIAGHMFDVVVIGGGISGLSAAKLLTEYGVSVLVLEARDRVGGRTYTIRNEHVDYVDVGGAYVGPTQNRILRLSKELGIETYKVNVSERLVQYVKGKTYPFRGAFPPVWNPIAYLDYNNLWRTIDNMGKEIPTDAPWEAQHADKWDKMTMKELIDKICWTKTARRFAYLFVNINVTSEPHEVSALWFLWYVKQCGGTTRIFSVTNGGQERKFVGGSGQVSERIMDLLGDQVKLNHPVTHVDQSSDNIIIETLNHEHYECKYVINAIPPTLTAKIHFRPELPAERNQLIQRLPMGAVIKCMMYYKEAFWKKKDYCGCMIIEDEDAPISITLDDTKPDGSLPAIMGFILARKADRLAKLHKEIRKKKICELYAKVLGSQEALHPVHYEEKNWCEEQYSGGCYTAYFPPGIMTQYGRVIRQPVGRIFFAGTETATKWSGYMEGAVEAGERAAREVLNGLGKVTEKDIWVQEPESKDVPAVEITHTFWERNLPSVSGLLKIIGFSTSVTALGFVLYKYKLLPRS

For O=c1c(O)c(-c2ccc(O)cc2)oc2cc(O)cc(O)c12 [Kaemferol], the “immobility time in FST and TST” value ([1]; stress-induced mice compared with unstressed mice) is given as “reducing the immobility time”.

In the case of C[C@@H]1O[C@@H](OC[C@H]2O[C@@H](Oc3c(-c4ccc(O)c(O)c4)oc4cc(O)cc(O)c4c3=O)[C@H](O)[C@@H](O)[C@@H]2O)[C@H](O)[C@H](O)[C@H]1O [Rutin, quercetin-3-rutinoside], the UCMS-induced behavioral deficits [2] is given as “efficiently rescued the UCMS-induced behavioral deficits”.

In the case of COc1cc(/C=C/C(=O)O)ccc1O [ferulic acid], the immobility [3] is given as “significantly reduced immobility”.

With CN(C)CCCN1c2ccccc2CCc2ccccc21 [imipramine, imipramine hydrochloride] the “UCMS-induced elevation in serum CORT levels” value [4] was “significantly suppressed”, the “immobility time in TST” value [5] was “significantly decreased the immobility time” and the “immobility time in FST” value [6] was “significantly decreased the immobility time”. For the same compound, the “expression of BDNF mRNA” value [7] was “normalized the down-regulated expression”, the 2% sucrose intake [8] was “significant increase” and the “expression of CREB mRNA” value [9] was “normalized the down-regulated expression”. The “locomotor activity (number of arm entries, Y-maze)” value [10] was “neither imipramine (IMP) nor the ethanol extract of D. alatus leaf improved the locomotor activity” and the “mRNA expression of SGK1” value [11] was “markedly decreased”.

For NCCC(=O)c1ccccc1N [kynuramine], the Km [12] is listed as 22.7 µM and the Km [13] is listed as 16.1 µM.

In the case of O=c1cc(-c2ccc(O)c(O)c2)oc2cc(O)cc(O)c12 [luteolin], the “effect in FST and TST” value ([1]; oral administration, 50 mg/kg) is listed as “antidepressant effects”.
